Reference: patent US9914730B2, “Azaquinazoline inhibitors of Atypical protein Kinase C” (Ignyta, Inc., priority 2012, dated 2018)

Target: T1, full-length human PKCι (Homo sapiens, UniProt P41743)
T1 construct: Recombinant, full-length human PKCι expressed in Sf21 insect cells is also commercially available; purchased; host or cells: Sf21 insect cells
T1 sequence (P41743 1-596): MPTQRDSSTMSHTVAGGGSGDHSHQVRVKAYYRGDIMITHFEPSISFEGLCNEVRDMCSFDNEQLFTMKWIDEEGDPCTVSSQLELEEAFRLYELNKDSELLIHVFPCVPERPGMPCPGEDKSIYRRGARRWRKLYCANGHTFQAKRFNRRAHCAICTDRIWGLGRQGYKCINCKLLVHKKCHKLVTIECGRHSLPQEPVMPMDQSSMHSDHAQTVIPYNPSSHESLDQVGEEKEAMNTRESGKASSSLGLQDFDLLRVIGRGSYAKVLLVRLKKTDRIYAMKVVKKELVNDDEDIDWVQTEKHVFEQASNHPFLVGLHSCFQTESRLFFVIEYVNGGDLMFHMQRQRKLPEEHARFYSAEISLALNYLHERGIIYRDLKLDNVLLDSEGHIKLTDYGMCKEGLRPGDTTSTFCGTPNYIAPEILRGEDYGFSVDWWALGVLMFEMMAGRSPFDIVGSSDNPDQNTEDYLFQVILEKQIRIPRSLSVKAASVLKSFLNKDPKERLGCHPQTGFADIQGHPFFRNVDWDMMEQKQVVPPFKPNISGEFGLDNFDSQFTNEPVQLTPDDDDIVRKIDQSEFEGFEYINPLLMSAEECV
Assay: PKCι IC50 IMAP assay, full-length PKCι at 150 μM ATP
Type: biochemical
Details: read-out: IC50 in IMAP assay against full length PKCi at 150 μM ATP
Text: Assays are based on the ability of PKCι to phosphorylate a commercially available peptide substrate in vitro. The peptide substrate is FAM-PKCε pseudopeptide derived peptide, and comprises the amino acid sequence 5FAM-[…]-NH2. Recombinant, full-length human PKCι expressed in Sf21 insect cells is also commercially available. Recombinant, kinase-domain human PKCι is expressed and purified in-house.
The procedure below explains how dose response curves for inhibitors of PKCι are obtained. The screen described is for a 384 well format but the assay can be adapted to 1536 or other formats as required.
Compounds to be tested are dissolved in 100% DMSO. Compounds are diluted as required to give a final concentration of 4% DMSO (v/v) in the assay. 1 μl is plated into 384 well black low-binding flat bottomed assay plates which are used immediately. Dilutions and additions of compound to assay plates are carried out using Matrix WellMate® and Matrix PlateMate® Plus liquid handling systems.
On the day of the screen PKCι/substrate working solution, and ATP working solution, are prepared in buffer containing 20 mM tris-HCl pH7.5, 10 mM MgCl2, 0.01% Triton X100, 250 μM EGTA and 1 mM DTT. The final concentration of PKCι used varies depending on the batch of protein but is typically 15 pM. The final concentration of peptide substrate in the assay is 100 nM. ATP is used at a final concentration of 150 μM or 25 μM in the assays containing full-length or kinase-domain PKCι respectively, which corresponds to five times or equal to the KM^APP for ATP for each enzyme, respectively. The final buffer concentration in the assay is 18 mM tris-HCl pH7.5, 9 mM MgCl2, 0.009% Triton X100, 225 μM EGTA and 0.9 mM DTT. Relevant controls are included, namely no compound and no enzyme. 5 μl PKCι/substrate working solution at 30 pM and 200 nM, respectively, is added to the wells, followed by 4 μl ATP working solution at 375 μM or 62.5 μM for full-length or kinase-domain PKCι respectively, using a 16 channel Matrix pipette. The reaction is allowed to incubate for 60 minutes at room temperature, before the reaction is stopped and developed by the addition of 20 μl IMAP™ development reagent (Molecular Devices). IMAP development reagent consists of 0.25% (v/v) IMAP progressive binding reagent, 17% (v/v) IMAP progressive binding buffer A and 3% (v/v) IMAP progressive binding buffer B. The plates are then incubated for 2 hours at room temperature before being read using an appropriate plate reader, for example a Molecular Devices HT Analyst or a BMG Pherastar. Plates are read using a fluorescence polarisation protocol with excitation at 485 nm and emission at 530 nm, and dichroic mirror at 505 nm.
Percentage inhibition values are calculated from fluorescence polarisation values, using the no compound and no enzyme control values as 0% and 100% inhibition, respectively. IC50 determination is performed with ExcelFit software (IDBS) using curve fit 205. Z′ factors are determined for each plate tested and are all above 0.5.

| Compound | IC50 [nM] |
| --- | --- |
| FC(F)(F)c1cc2c(-c3nc(N4CCC4)c4c(C5CC5)cncc4n3)ccnc2[nH]1 [Example 1248, 4-Azetidin-1-yl-5-cyclopropyl-2-(2-trifluoromethyl-1H-pyrrolo[2,3-b]pyridin-4-yl)-pyrido[3,4-d]pyrimidine] | 10000 to 40000 |
| C[C@H](N)CNc1nc(-c2ccncc2)nc2cnccc12 [Example 5, N-[(2S)-2-aminopropyl]-2-(pyridin-4-yl)pyrido[3,4-d]-pyrimidin-4-amine] | 10000 to 40000 |
| COc1cncc2nc(-c3ccnc(Nc4ccccc4)c3)nc(N3CCC(F)(F)CC3)c12 [Example 460, {4-[4-(4,4-Difluoro-piperidin-1-yl)-5-methoxy-pyrido[3,4-d]pyrimidin-2-yl]-pyridin-2-yl}-phenyl-amine] | 10000 to 40000 |
| COc1cncc2nc(-c3ccnc(Nc4cccnc4)c3)nc(N[C@@H]3CCNC3)c12 [Example 377, {5-Methoxy-2-[2-(pyridin-3-ylamino)-pyridin-4-yl]-pyrido[3,4-d]pyrimidin-4-yl}-(R)-pyrrolidin-3-yl-amine] | 100 to 1000 |
| COc1cncc2nc(-c3ccnc(Nc4cncnc4)c3)nc(N3CCNCC3)c12 [Example 386, [4-(5-Methoxy-4-piperazin-1-yl-pyrido[3,4-d]pyrimidin-2-yl)-pyridin-2-yl]-pyrimidin-5-yl-amine] | 100 to 1000 |
| O[C@H]1Cc2ccccc2[C@@H]1Nc1cc(-c2nc(N3CCNCC3)c3c(C4CC4)cncc3n2)ccn1 [Example 2141, (1S,2S)-1-[4-(5-Cyclopropyl-4-piperazin-1-yl-pyrido[3,4-d]pyrimidin-2-yl)-pyridin-2-ylamino]-indan-2-ol] | < 100 |
| c1cc(-c2nc(N3CCNCC3)c3c(C4CC4)cncc3n2)c2cc([C@H]3C[C@H]4CC[C@@H]3C4)[nH]c2n1 (racemic) [Example 2079, (±)-2-((endo)-2-Bicyclo[2.2.1]hept-2-yl-1H-pyrrolo[2,3-b]pyridin-4-yl)-5-cyclopropyl-4-piperazin-1-yl-pyrido[3,4-d]pyrimidine] | < 100 |
| COc1cncc2nc(-c3ccncc3)nc(N3CCN[C@H](Cc4ccccc4)C3)c12 [Example 37, (3R)-3-benzyl-1-[5-methoxy-2-(pyridin-4-yl)pyrido[3,4-d]pyrimidin-4-yl]piperazine] | < 100 |
| Fc1cc(C2CC2)c(F)nc1Nc1cc(-c2nc(N3CCNCC3)c3c(C4CC4)cncc3n2)ccn1 [Example 2047, (5-Cyclopropyl-3,6-difluoro-pyridin-2-yl)-[4-(5-cyclopropyl-4-piperazin-1-yl-pyrido[3,4-d]pyrimidin-2-yl)-pyridin-2-yl]-amine] | < 100 |
| FC1(c2cc3c(-c4nc(N5CCNCC5)c5c(C6CC6)cncc5n4)ccnc3[nH]2)CC1 [Example 2127, 5-Cyclopropyl-2-[2-(1-fluoro-cyclopropyl)-1H-pyrrolo[2,3-b]pyridin-4-yl]-4-piperazin-1-yl-pyrido[3,4-d]pyrimidine] | < 100 |
| FC(F)(F)c1cc2c(-c3nc(NC4CCNC4)c4c(C5CC5)cncc4n3)ccnc2[nH]1 (stereo in doubt) [Example 2069, [5-Cyclopropyl-2-(2-trifluoromethyl-1H-pyrrolo[2,3-b]pyridin-4-yl)-pyrido[3,4-d]pyrimidin-4-yl]-(R)-pyrrolidin-3-yl-amine] | < 100 |

More lines, now with the values ahead:

| IC50 [nM] | Compound |
| --- | --- |
| < 100 | COc1ccc(C)c(Nc2cc(-c3nc(N4CCNCC4)c4c(C5CC5)cncc4n3)ccn2)c1 [Example 553, [4-(5-Cyclopropyl-4-piperazin-1-yl-pyrido[3,4-d]pyrimidin-2-yl)-pyridin-2-yl]-{5-methoxy-2-methyl-phenyl)-amine] |
| < 100 | c1cc(-c2nc(N3CCNCC3)c3c(C4CC4)cncc3n2)c2cc(C3CCCCC3)[nH]c2n1 [Example 2152, 5-Cyclopropyl-2-(2-cyclohexyl-1H-pyrrolo[2,3-b]pyridin-4-yl)-4-piperazin-1-yl-pyrido[3,4-d]pyrimidine] |
| < 100 | c1cc(-c2nc(N3CCNCC3)c3c(C4CC4)cncc3n2)cc(Nc2ccc3c(c2)CCC3)n1 [Example 2124, [4-(5-Cyclopropyl-4-piperazin-1-yl-pyrido[3,4-d]pyrimidin-2-yl)-pyridin-2-yl]-indan-5-yl-amine] |
| < 100 | CC1(C)CNCCC1Nc1nc(-c2ccnc(Nc3ncc(F)cc3F)c2)nc2cncc(C3CC3)c12 (stereo not drawn) [Example 2175, {5-Cyclopropyl-2-[2-(3,5-difluoro-pyridin-2-ylamino)-pyridin-4-yl]-pyrido[3,4-d]pyrimidin-4-yl}-(3,3-dimethyl-piperidin-4-yl)-amine] |
| < 100 | c1cc(-c2nc(N3CCNCC3)c3c(C4CC4)cncc3n2)c2cc[nH]c2n1 [Example 1209, 5-Cyclopropyl-4-piperazin-1-yl-2-(1H-pyrrolo[2,3-b]pyridin-4-yl)-pyrido[3,4-d]pyrimidine] |
| < 100 | Fc1cc(F)c(Nc2cc(-c3nc(N4CCNCC4)c4c(C5CC5)cncc4n3)ccn2)c(F)c1 [Example 650, [4-(5-Cyclopropyl-4-piperazin-1-yl-pyrido[3,4-d]pyrimidin-2-yl)-pyridin-2-yl]-(2,4,6-trifluoro-phenyl)-amine] |
| < 100 | COc1ccc(CC(=O)Nc2cc(-c3nc(N4CCNCC4)c4c(OC)cncc4n3)ccn2)cc1 [Example 374, 2-(4-Methoxy-phenyl)-N-[4-(5-methoxy-4-piperazin-1-yl-pyrido[3,4-d]pyrimidin-2-yl)-pyridin-2-yl]-acetamide] |
| < 100 | COc1cncc2nc(-c3ccnc(Nc4ccc(Cl)cn4)c3)nc(N3CCNCC3)c12 [Example 366, (5-Chloro-pyridin-2-yl)-[4-(5-methoxy-4-piperazin-1-yl-pyrido[3,4-d]pyrimidin-2-yl)-pyridin-2-yl]-amine] |
| < 100 | CN1CCN(c2ccc(Nc3cc(-c4nc(N[C@@H]5CCNC5)c5ccncc5n4)ccn3)cn2)CC1 [Example 320, (2-{2-[6-(4-Methyl-piperazin-1-yl)-pyridin-3-ylamino]-pyridin-4-yl}-pyrido[3,4-d]pyrimidin-4-yl)-(R)-pyrrolidin-3-yl-amine] |
| < 100 | Fc1ccccc1C1(c2cc3c(-c4nc(N5CCNCC5)c5c(C6CC6)cncc5n4)ccnc3[nH]2)CC1 [Example 2009, 5-Cyclopropyl-2-{2-[1-(2-fluoro-phenyl)-cyclopropyl]-1H-pyrrolo[2,3-b]pyridin-4-yl}-4-piperazin-1-yl-pyrido[3,4-d]pyrimidine] |
| < 100 | COc1cncc2nc(-c3ccnc(Nc4ccc(F)cc4)c3)nc(N[C@@H]3CCNC3)c12 [Example 230, {2-[2-(4-Fluoro-phenyl-amino)-pyridin-4-yl]-5-methoxy-pyrido[3,4-d]pyrimidin-4-yl}-(R)-pyrrolidin-3-yl-amine] |
| < 100 | Fc1ccc(Nc2cc(-c3nc(N4CCNCC4)c4c(C5CC5)cncc4n3)ccn2)c(Cl)c1 [Example 570, (2-Chloro-4-fluoro-phenyl)-[4-(5-cyclopropyl-4-piperazin-1-yl-pyrido[3,4-d]pyrimidin-2-yl)-pyridin-2-yl]-amine] |
| < 100 | C[C@H]1CN(c2nc(-c3ccnc(Nc4ccccc4)c3)nc3cncc(C4CC4)c23)CCN1 [Example 569, {4-[5-Cyclopropyl-4-((S)-3-methyl-piperazin-1-yl)-pyrido[3,4-d]pyrimidin-2-yl]-pyridin-2-yl}-phenyl-amine] |
